In patent publication US20250134889A1, “TARGETING IRE1 KINASE AND FMRP FOR PROPHYLAXIS, MANAGEMENT AND TREATMENT OF ATHEROSCLEROSIS” (CEDARS-SINAI MEDICAL CENTER, priority 2022, published 2025):

Columns and labels:
[1] = target: T1, human IRE1-kinase/RNase domains (amino acids 468-977) (Homo sapiens, UniProt O75460); assay: Kinase reaction with purified recombinant IRE1 and FMRP; type: biochemical; conditions: purified proteins, ATP-γ-S
T1 construct: recombinant human IRE1-kinase/RNase domains (amino acids 468-977); purchased Biotech (so in the source) E31-11G
T1 sequence (O75460 468-977): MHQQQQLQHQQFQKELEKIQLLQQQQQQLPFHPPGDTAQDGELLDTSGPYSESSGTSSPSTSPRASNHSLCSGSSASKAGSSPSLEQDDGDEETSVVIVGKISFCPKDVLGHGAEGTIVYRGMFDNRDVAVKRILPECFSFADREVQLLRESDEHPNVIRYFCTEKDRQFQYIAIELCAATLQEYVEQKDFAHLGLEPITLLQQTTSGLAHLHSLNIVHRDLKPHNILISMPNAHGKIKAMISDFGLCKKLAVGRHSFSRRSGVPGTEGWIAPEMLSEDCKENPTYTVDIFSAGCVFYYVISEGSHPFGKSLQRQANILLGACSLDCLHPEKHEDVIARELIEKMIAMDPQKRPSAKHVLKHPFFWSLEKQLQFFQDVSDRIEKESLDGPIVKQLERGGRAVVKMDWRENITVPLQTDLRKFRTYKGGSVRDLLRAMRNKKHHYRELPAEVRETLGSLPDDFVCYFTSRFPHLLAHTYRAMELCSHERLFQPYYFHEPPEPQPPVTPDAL

[2] = tested on: PM; assay: In vivo efferocytosis; design: species or system mouse; conditions: C57BL/6, AMG-18 30 mg/kg 8 hours, CFSE-labeled ACs i.p. 1.5 hours
Source text: FIGS. 3A-3G depict that FMRP-deficiency increases efferocytosis in vivo. (For all images scale bar=50 μm; Red: Macrophages, Green: AC/AC-1, Violet: AC-2. Data are mean±SEM. Unpaired t-test with Welch's correction. * P≤0.05, ** P≤0.01, *** P≤0.001.) • 3A-3E. In vitro and in vivo efferocytosis experiments, where percentage of macrophages F4/80^+ (red) that ingested apoptotic cells (AC) labeled with carboxyfluorescein succinimidyl ester (CFSE)^+ (green) were reported as % efferocytosis. • 3A. BMDMs were transfected with Fmr1- or control-siRNA and incubated CFSE-labeled AC for the indicated hours (n=4). • 3B. Fmr1^+/+ and Fmr1^−/− BMDMs were treated with PA (500 μM) for 6 hours and then incubated with CFSE-labeled ACs for 4 hours (n=4). • 3C. Fmr1^+/+ and Fmr1^−/− mice were fed WD (16 weeks) and injected intraperitoneally with CFSE-labeled AC (1.5 hours), followed by PM elicitation (n=4-5). • 3D. BMDM were pre-treated either with vehicle (DMSO) or AMG-18 (5 μM) for 1 hour then incubated with CFSE-labeled ACs for 4 hours (n=4). • 3E. […] In vitro continuous efferocytosis experiments, where macrophages were stained for F4/80^+ (red), AC were labeled with CFSE (AC-1; green) or Violet (AC2; violet). % continuous efferocytosis was determined by the ratio of F4/80^+, CFSE^+ and Violet^+ (triple positive) cells to total F4/80^+/+ and CFSE^+ (double positive) cells. • 3F. […]

[3] = tested on: BMDMs; assay: Apoptosis detection by flow cytometry (PI); type: cell-based, mouse; conditions: AMG-18 10 μM 1 hour pre-treatment, PA 12 hours
Source text: FIGS. 5K-5T depict: (Data are mean #SEM; Mann Whitney U test. * P≤0.05, ** P≤0.01, *** P≤0.001) • 5K. The ratio of mouse weight at the beginning of the experiment over the weight at the end of the experiment in FIG. 5A (n=12-13); and plasma measurements for glucose (n=12-13), cholesterol (n=12-13) and lipoproteins (n=4), respectively, from mice in FIG. 5A. • 5L. Abundance of B cells, T cells and monocytes in the peripheral blood as % of total CD45+ cells from the Fmr1^+/+ and Fmr1^−/− mice in FIG. 5A (n=12-13) . • 5M. Macrophage area was calculated from MOMA-2 (red)-stained aortic root sections as % of MOMA2^+ stained area to total plaque area (n=8; Scale bar=100 μm). • 5N. Apoptosis was calculated from the number of TUNEL^+ cells (green) in the MOMA-2-stained (red) plaque area (n=8; Scale bar=100 μm). • 5O. Fmr1^+/+ and Fmr1^−/− BMDMs or AMG-18 pre-treated cells (10 μM, 1 hour) were treated with PA ([…]) treatment for 12 hours and then stained with Propidium iodide (PI) (n=5). • 5P. % Smooth muscle actin (α-SMA) was calculated from aortic root sections stained with a-SMA (green) as % α-SMA^+ area to the total plaque area (n=8, Scale bar 100 μm). • 5Q. % collagen area was calculated from Masson's Trichrome staining as the percentage of collagen (blue) area in total plaque area (n=8; Scale bar=100 μm). • 5R. […]

FMRP phosphorylation in kinase reaction [1]: AMG-18-sensitive
IRE1 phosphorylation in kinase reaction [1]: AMG-18-sensitive
SMILES: Cc1ccc2c(NS(=O)(=O)c3ccccc3Cl)cccc2c1Oc1ncccc1-c1ccnc(N[C@H]2CCCNC2)n1 [AMG-18]
efferocytosis of ACs by PM in vivo [2]: induced
apoptosis (PI staining) [3]: no significant change
